Tested on: histamine H2 -receptors
Assay: inhibition of histamine-stimulated secretion of gastric acid from the lumen-perfused stomachs of rats anaesthetised with urethane
Format: in vivo
Conditions: i.v., lumen-perfused stomach of urethane-anaesthetised rats

Question: For `N=C(N)Nc1nc(CSCCNc2[nH]ccc2[N+](=O)[O-])cs1` [Example 1, 2-[2-(2-Guanidino-4-thiazolylmethylthio)ethylamino]-3-nitropyrrole], which “dose causing 50% inhibition of maximal acid secretion” value is on record?
Answer: less than 0.1 micromole kg^-1

Reference: patent US4359466A, “Guanidine compounds” (Smith Kline & French Laboratories Limited, priority 1980, dated 1982)
